# Measured values from patent US12234216B2, “Isotopologues salts, crystalline forms, stereoisomers, of methylone and ethylone and methods of use thereof” (Terran Biosciences Inc., priority 2021, dated 2025).
# Structures can show the parent of a compound that is named as a salt.
# Key:
# [1] = Dynamic vapor sorption (DVS); format: physicochemical
# [2] = Plasma and brain concentration at the end of the zero maze study; format: in vivo, rat; conditions: terminal samples after 5, 15, 30 mg/kg ip; FIG. 68 and FIG. 69
# Description: Terminal sampling. At the end of the study, terminal blood was collected from 2 of the vehicle treated rats (>5 mL) and from all methylone HCl treated rats (500 uL) by CP under CO2. Blood samples were placed into Eppendorf tubes on ice containing 22 μL/mL blood (vehicle treated) or 11 μL EDTA (93 mg/mL) (Methylone HCl treated rats) and gently mixed. After no longer than 30 min, blood samples were centrifuged at 10,000 rpm×3 min and plasma samples (>2 mL (vehicle) or 2×100 μL (Methylone HCl treated) placed into Eppendorf tubes (Vehicle) or 96 well plates on dry ice. Immediately after blood sampling, brains were excised, rinsed in saline, blotted, weighed and snap-frozen in liquid N2. All samples were stored at −20° C. until dispatched on dry ice for analysis.
# Terminal sampling. At the end of the study, terminal blood was collected from 2 of the vehicle treated rats (>5 mL) and from all S-methylone HCl treated rats (500 uL) by CP under CO2. Blood samples were placed into Eppendorf tubes on ice containing 22 μL/mL blood (vehicle treated) or 11 μL EDTA (93 mg/mL) (S-methylone HCl treated rats) and gently mixed. […]
# [3] = system: participants diagnosed with at least moderate post-traumatic stress disorder (PTSD); test: Double-blind, randomized, placebo-controlled clinical trial of methylone-assisted psychotherapy in PTSD; format: in vivo, human
# Description: A multicenter, randomized, double-blind, placebo-controlled trial is conducted to assess the efficacy and safety of methylone-assisted psychotherapy versus psychotherapy with placebo control in participants diagnosed with at least moderate post-traumatic stress disorder (PTSD).
# This multicenter, randomized, double-blind, placebo-controlled trial is conducted at various sites in the United States with IRB approval from each study site. A flexible dose of methylone hydrochloride salt or placebo, followed by a supplemental half-dose unless contraindicated by patient's previous response or medical history, is also administered during the Treatment Period with psychotherapy in at least 3 blinded monthly Experimental Sessions. The Supplemental Dose extends the duration of drug effects on the participants during an Experimental Session. Methylone test groups are further subdivided into specific groups receiving only racemic methylone hydrochloride salt, S-methylone hydrochloride salt, or R-methylone hydrochloride salt. An optional Risk Evaluation and Mitigation Strategy (REMS) Protocol may be implemented for the racemic methylone, S-methylone, and placebo-groups. The Treatment Period lasts for approximately 12 weeks. During the Treatment Period, each Experimental Session is followed by three Intervening Sessions of non-drug psychotherapy. Each Experimental Session involves an overnight stay. The Primary Outcome measure, the change in Clinician Administered PTSD Scale for DSM-5 (CAPS-5), is determined by a blinded Independent Rater (IR) pool multiple times throughout the study. The study consists of separate periods for each participant. Initially, prospective participants undergo a Screening Period involving an initial eligibility assessment, a medical history intake, informed consent, and enrollment of eligible participants. Next, a Preparation Period is undertaken for enrolled participants involving medication tapering and clinical baseline assessments to confirm each participant meets enrollment criteria. As part of the Preparation Period, a detailed assessment of co-morbidities to PTSD is recorded. Participants may remain on prescribed courses of selective serotonin reuptake inhibitor (SSRI) or serotonin and norepinephrine reuptake inhibitor (SNRI) treatment. Dosages and/or frequency of administration of a prescribed SSRI or SNRI may be adjusted to fit within study parameters. Participants may be required to taper a prescribed course of medication in order to maintain eligibility within the study. The Treatment Period consists of three monthly Experimental Sessions and associated Intervening Sessions of integrative behavioral psychotherapy. The Treatment Period lasts approximately 12 weeks. Following the Treatment Period is a Follow-up Period and Study Conclusion. During the Follow-up Period and Study Conclusion, participants complete 4 weeks with no study visits, followed by a Study Conclusion visit.
# This study compares the effects of three blinded Experimental Sessions of psychotherapy in combination with flexible doses of methylone or placebo administered as described below. Non-drug preparatory and intervening psychotherapy sessions are also included. Patient's weight is determined for dosage calculation. Initial dose is 100 mg unless this will result in a dosage of less than 1.5 mg/kg of patient weight. Initial dose thereby adjusted upward in 25 mg increments to deliver the lowest dose possible of at least 1.5 mg/kg of patient weight. Initial dose for Experimental Session 2 and 3 is cumulative dose calculated by adding the initial dose plus REMS protocol dose used the previous Experimental Session for each patient.
# Randomization occurs prior to the initiation of Experimental Session 1. Each participant is provided the next randomized number in a sequence by a blinded study monitor. […]
# [4] = Study Conclusion, vs placebo-treated controls
structure (smiles),measurement,setting,value
"CNC(C)C(=O)c1ccc2c(c1)OCO2 (racemic) [(rac)-Methylone Hydrochloride, 3,4-methylenedioxy-N-methylcathinone hydrochloride]",relative humidity above which water uptake is seen,[1]; DVS (FIG. 26),above 75 % RH
same,physical stability after the moisture sorption-desorption analysis,[1]; between 5% RH and 95% RH,physically stable
same,behaviour of the material on humidity exposure,[1]; exposed to 75% RH for 2 hours,became tacky and stuck to the vial
same,concentration in plasma and brain,[2],increased in both brain and plasma at the higher doses
same,CAPS-5 assessments compared to placebo-treated controls,"[3]; Intervening Session 1C, 2C, 3C and Study Conclusion",Significant improvements in CAPS-5 assessments
same,daytime sleepiness as measured by ESS,[3]; Study Conclusion,significant improvement in lessening daytime sleepiness
same,clinician-rated functional impairment score as measured by SDS,[3]; [4],significant improvement in clinician-rated functional impairment score
same,depression as measured by HAM-D,[3]; [4],significant improvement depression
same,change in CAPS-5 assessment compared to the placebo group,"[3]; Study Conclusion, 100-200 mg p.o. initial dose, 3 Experimental Sessions with psychotherapy",significant mean reduction in CAPS-5 assessment
